# Legend:
# Assay type in all cases: cell-based, Human
# HepG2 [1] = assay: Inhibitory activity and IC50 to HepG2 at different time of treatment (MTT, Example 4); details: HepG2, 40 μg/ml
# Procedure: Human resources hepatoma cell line HepG2 was provided by Cancer Hospital, Chinese Academy of Medical Sciences. […] Cells were passaged every 2 or 3 days, and all the experiments were carried out on exponentially growing cells.
# Cells were harvested in good growth status and cell suspension was prepared with 2×10^4 cells/mL, added 100 μL per well of 96-well plates, and cultured for 24 h in the incubator. 100 μL liquid medium with no cell was added per well as blank group.
# 3 plates were used as parallel test to culture cells at different period.
# Before medication, supernatant of each well was removed and fresh 1640 medium was added, 180 μL per well. […] Wells of blank and model groups were added with 0.5% DMSO, 20 μL per well. After finished adding drugs, cells were incubated for 24 and 48 h respectively. At the end of incubation, 20 μL MTT was added per well […]. The supernatant was removed carefully and 150 μL DMSO was added per well. After shaken for 10 mins, the absorbance was read at 490 nm and the inhibition rate was calculated with the formula below.
# (§1) Inhibition rate=[(ODmodel−ODblank)−(ODdrugs−ODblank)]/(ODmodel−ODblank)×100%
# IC50 was calculated with Bliss method.
# (§2) The MTT experiment was repeated three times.
# MCF-7 = assay: MTT inhibition of tumor cells in vitro (Example 3); details: 40 μg/mL, 48 hours
# Procedure: (§3) Human resources tumor cell line […], […], HT29, MCF-7 and A875 were provided by Cancer Hospital, Chinese Academy of Medical Sciences.
# (§4) Cells were passaged every 2 or 3 days, and all the experiments were carried out on exponentially growing cells.
# (§5) All cells were cultured in a humidified atmosphere (5% CO2 and […]), and passaged every 2 or 3 days. Cells were harvested on exponentially growing phase, and cell suspension was prepared with 2×10^4 cells/mL, added with 100 μL per well of 96-well plates, and cultured for 24 h in incubator. 100 μL medium without cells was added per well as blank group.
# (§6) Compound (1), (2), (3), (4), (7) or (8) was dissolved in DMSO respectively, and diluted with 1640 medium at a final concentration of 400 μg/mL, so as to that of the Cisplatin. Cells were divided into 9 groups, they were blank group, model group, Compound (1), (2), (3), (4), (7) and (8) groups, and Cisplatin group as the positive one, 6 wells per group.
# (§7) Before drug administration, supernatant of each well was removed and fresh 1640 medium was added, 180 μL per well. Compounds and Cisplatin were added with 20 μL per well respectively at a final concentration of 40 μg/mL. Wells of blank and model groups were added with 0.5% DMSO, 20 μL per well. 48 hours later, 20 μL MTT was added per well and continued to culture for 4 hours, then the supernatant was replaced carefully and DMSO was added with 150 μL per well to end the experiment. The 96-well plates were shaken for 10 mins and read the absorbance at 490 nm. The Inhibition rate was calculated.
# as §1, §2
# A875 = assay: MTT inhibition of tumor cells in vitro (Example 3); details: 40 μg/mL, 48 hours
# Procedure: as §3, §4, §5, §6, §7, §1, §2
# BGC823 = assay: MTT inhibition of tumor cells in vitro (Example 3); details: 40 μg/mL, 48 hours
# Procedure: as §3, §4, §5, §6, §7, §1, §2
# HT29 = assay: MTT inhibition of tumor cells in vitro (Example 3); details: 40 μg/mL, 48 hours
# Procedure: as §3, §4, §5, §6, §7, §1, §2
# HepG2 [2] = assay: MTT inhibition of tumor cells in vitro (Example 3); details: 40 μg/mL, 48 hours
smiles,measurement,setting,value
"N.N.[Cl][Pt][Cl] [Cisplatin, reference compound]",Inhibition rate,HepG2 [1]; 24 h,47.94 ± 6.328%
same,Inhibition rate,HepG2 [1]; 48 h,99.45 ± 0.36%
same,"Inhibition rate, MCF-7",MCF-7,97.53 ± 2.05%
same,"Inhibition rate, A875",A875,90.13 ± 1.98%
same,"Inhibition rate, BGC823",BGC823,97.86 ± 4.12%
same,"Inhibition rate, HT29",HT29,99.04 ± 1.15%
same,"Inhibition rate, HepG2",HepG2 [2],82.15 ± 4.05%

# Source: US20170143748A1, “ANTI-TUMOR PHARMACEUTICAL APPLICATION OF PENTACYCLIC TRITERPENE SAPONIN COMPOUNDS OF SZECHUAN MELANDIUM ROOT” (priority 2014, published 2017)
